This is an account of results in paper PMC7876453, “Targeting Indoleamine 2,3-Dioxygenase in Cancer Models Using the Novel Small Molecule Inhibitor NTRC 3883-0” (Frontiers in Immunology, 2021).

Molecules are shown by their SMILES.

The IC50 is the concentration needed to halve the response being measured.

Test [1] concerns the target T1, human IDO1 (Homo sapiens, UniProt P14902).
T1 construct: Full-length recombinant human and mouse IDO1 were expressed in Escherichia coli with a hexahistidine tag at the N-terminus; hexahistidine (N); made in house; host or cells: Escherichia coli
The experiment in a line: human IDO1 biochemical assay (NFK GreenScreen).

Test [2] concerns the target T2, human TDO (Homo sapiens, UniProt P48775).
T2 construct: hexahistidine (C); made in house; host or cells: Escherichia coli
The test is described as follows: human TDO biochemical assay (NFK GreenScreen). The following applies: biochemical; highest tested concentration 31.6 µM. Here is the method: Full-length recombinant human and mouse IDO1 were expressed in Escherichia coli with a hexahistidine tag at the N-terminus, and purified by affinity chromatography to > 95% purity, as described ([8]). Human and mouse TDO containing a C-terminal hexahistidine tag were analogously expressed and purified to > 95% purity ([8]). The inhibitory activity of compounds was determined with the NFK GreenScreen assay technology under the conditions as described ([8]), except for the reaction buffer for IDO1, which was replaced by 50 mM NaH2PO4, pH 7.0, supplemented with 0.01% Tween-20 and 1% glycerol. Inhibition of the CYP3A4 and CYP2D6 enzymes was determined with the P450-Glo™ Screening System with Luciferin-IPA (Promega, #V9920 and V9890). For determination of IC50 values, the effect of inhibitors was determined in 10-point duplicate dose-response curves. Graphs were fitted to a four-parameter logistics equation in XLfit (ID Business Solutions, Ltd., Guildford, UK) from which IC50 values were calculated.

In test [3] the target is T3, A375 + IFNγ (hIDO1) (Homo sapiens, UniProt P14902).
T3 construct: host or cells: A375 cells stimulated with IFNγ
The experiment in a line: cell-based assay, Trp-catabolizing activity in IFNγ-stimulated A375 cells. The following applies: IFNγ-stimulated A375 human melanoma cells.

In test [4] the test system is CT26 cells implanted subcutaneously into female BALB/c mice. The test is described as follows: CT26 mouse model, first study (ProQinase). Type of test: in vivo. Conditions: 50 mg/kg NTRC 3748-0 b.i.d., 100 mg/kg epacadostat q.d. Here is the method:
For the first CT26 mouse model study, performed at ProQinase, 5 × 10^5 CT26 cells were implanted subcutaneously into female BALB/c mice on day 0. […] Tumor growth was monitored using caliper measurement 2 times weekly. The study was terminated at day 22 based on the tumor burden. Tumors and plasma were sampled 2 h post last dose.
Tissues were homogenized in PBS at a ratio of 1 mg per 10 μl using micro pellet pestles mounted on a Micro-Tube Homogenizer System (Thomas Scientific). After centrifugation, proteins were removed from the homogenized tissue supernatants and plasma samples by precipitation with methanol. The concentrations of inhibitor, Trp and Kyn were determined by LC-MS/MS.

For test [5], the system named is IDO1. Conditions: cited from earlier work.
Test [6] has as its system TDO. Conditions: cited from earlier work.

T1 sequence (P14902 whole entry): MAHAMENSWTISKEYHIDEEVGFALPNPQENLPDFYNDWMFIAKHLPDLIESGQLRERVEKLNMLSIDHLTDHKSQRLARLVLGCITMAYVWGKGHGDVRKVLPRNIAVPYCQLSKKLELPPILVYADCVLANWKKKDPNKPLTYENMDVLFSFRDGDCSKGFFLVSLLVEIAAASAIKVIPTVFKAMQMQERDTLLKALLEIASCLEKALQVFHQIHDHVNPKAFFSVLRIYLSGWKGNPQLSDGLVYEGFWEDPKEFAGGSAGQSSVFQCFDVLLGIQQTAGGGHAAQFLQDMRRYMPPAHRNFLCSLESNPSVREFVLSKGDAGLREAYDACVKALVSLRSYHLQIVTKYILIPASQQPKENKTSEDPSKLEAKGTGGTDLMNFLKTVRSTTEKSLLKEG
T3 sequence (P14902 whole entry): as above
T2 sequence (P48775 whole entry): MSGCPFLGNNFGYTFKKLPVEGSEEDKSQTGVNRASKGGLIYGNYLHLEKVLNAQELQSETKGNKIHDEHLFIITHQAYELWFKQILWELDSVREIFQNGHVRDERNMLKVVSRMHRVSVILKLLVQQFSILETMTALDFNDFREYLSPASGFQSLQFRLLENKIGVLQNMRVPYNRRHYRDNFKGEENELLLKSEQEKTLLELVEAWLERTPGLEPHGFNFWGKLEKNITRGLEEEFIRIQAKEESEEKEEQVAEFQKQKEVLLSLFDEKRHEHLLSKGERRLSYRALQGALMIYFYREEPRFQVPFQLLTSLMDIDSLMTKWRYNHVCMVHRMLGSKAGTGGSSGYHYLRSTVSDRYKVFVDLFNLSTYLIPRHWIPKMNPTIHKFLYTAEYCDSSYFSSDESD

Consider `O=C1CN(C(=O)c2ccccc2)C(c2cccc(Br)c2)N1O` (centres unmarked) [Compound 1], for which the 50% inhibitory concentration (IC50) in test [1] (biochemical) worked out at 1.2 µM; in test [1] (human IDO1 biochemical assay) it was 1.22 µM; in test [3] it was 4.52 µM. In addition, the “activity on human TDO (in words)” value in test [2] was “inactive”.

As to `O=C1CN(C(=O)c2ccccc2)C(c2ccccc2)N1O` (centres unmarked) [Compound 2a], the IC50 in test [1] (human IDO1 biochemical assay) and in test [3] was above 31.6 µM each time.

Turning to `O=C1CN(C(=O)c2ccccc2)C(c2cccc(Cl)c2)N1O` (centres unmarked) [Compound 2b], the IC50 in test [1] (human IDO1 biochemical assay) amounted to 2.38 µM; in test [3], 5.22 µM.

On to `O=C1CN(C(=O)c2ccccc2)C(c2ccccc2Br)N1O` (centres unmarked) [Compound 2c], for which the IC50 in test [1] (human IDO1 biochemical assay) and in test [3] was above 31.6 µM each time.

Consider `O=C1CN(C(=O)c2ccccc2)C(c2ccc(Br)cc2)N1O` (centres unmarked) [Compound 2d], for which the IC50 in test [1] (human IDO1 biochemical assay) and in test [3] was above 31.6 µM throughout.

With `O=C1CN(C(=O)c2ccccc2)C(C2CCCCC2)N1O` (centres unmarked) [Compound 2e], the IC50 in test [1] (human IDO1 biochemical assay) and in test [3] was above 31.6 µM throughout.

As for `N#Cc1cccc(C2N(O)C(=O)CN2C(=O)c2ccccc2)c1` (centres unmarked) [Compound 2f], the results for the concentration for half-maximal inhibition (IC50) in test [1] (human IDO1 biochemical assay) and in test [3] were 17.9 µM and above 31.6 µM, respectively.

Take `O=C1CN(C(=O)c2ccccc2)C(c2cccc(C(F)(F)F)c2)N1O` (centres unmarked) [Compound 2g]: the results for the IC50 in test [1] (human IDO1 biochemical assay) and in test [3] were 2.46 µM and 5.29 µM, respectively.

For the molecule `O=C1CN(C(=O)c2ccc(F)cc2)C(c2cccc(Br)c2)N1O` (centres unmarked) [Compound 3a], the figures for the half-maximal inhibitory concentration (IC50) in test [1] (human IDO1 biochemical assay) and in test [3] were 2.17 µM and 11 µM, respectively.

Consider `O=C1CN(C(=O)c2cccc(F)c2)C(c2cccc(Br)c2)N1O` (centres unmarked) [Compound 3b], for which the IC50 came to 0.91 µM in test [1] (human IDO1 biochemical assay) and 5.24 µM in test [3].

In the case of `O=C1CN(C(=O)c2ccccc2F)C(c2cccc(Br)c2)N1O` (centres unmarked) [Compound 3c], the results for the IC50 in test [1] (human IDO1 biochemical assay) and in test [3] were 0.479 µM and 1.15 µM, respectively.

Regarding `Cc1ccccc1C(=O)N1CC(=O)N(O)C1c1cccc(Br)c1` (centres unmarked) [Compound 3d], the figures for the IC50 in test [1] (human IDO1 biochemical assay) and in test [3] were 4.02 µM and 21.7 µM, respectively.

`COc1ccccc1C(=O)N1CC(=O)N(O)C1c1cccc(Br)c1` (centres unmarked) [Compound 3e]: the half-maximal inhibitory concentration (IC50) in test [1] (human IDO1 biochemical assay) and in test [3] was above 31.6 µM throughout.

Turning to `O=C1CN(C(=O)c2ccccc2Cl)C(c2cccc(Br)c2)N1O` (centres unmarked) [Compound 3f], the IC50 in test [1] (human IDO1 biochemical assay) turned out to be 0.784 µM; in test [3], 4.6 µM.

On to `O=C1CN(C(=O)c2ccccc2Br)C(c2cccc(Br)c2)N1O` (centres unmarked) [Compound 3g], for which the IC50 in test [1] (human IDO1 biochemical assay) was determined as 1.78 µM; in test [3], 12.5 µM.

As to `O=C1CN(C(=O)c2cc(F)ccc2F)C(c2cccc(Br)c2)N1O` (centres unmarked) [Compound 3h], the 50% inhibitory concentration (IC50) in test [1] (human IDO1 biochemical assay) stood at 0.6 µM; in test [3], 2.83 µM.

Turning to `O=C1CN(C(=O)c2ccc(F)cc2F)C(c2cccc(Br)c2)N1O` (centres unmarked) [Compound 3i], the 50% inhibitory concentration (IC50) in test [1] (human IDO1 biochemical assay) is 0.582 µM; in test [3] it was 2.14 µM.

In the case of `O=C1CN(C(=O)c2c(F)cccc2F)C(c2cccc(Br)c2)N1O` (centres unmarked) [Compound 3j], the values for the IC50 in test [1] (human IDO1 biochemical assay) and in test [3] were 0.198 µM and 0.589 µM, respectively. In test [4] (LC-MS/MS, 2 h post last dose), the “Kyn levels in the tumor” value is given as “considerable reduction of Kyn levels”. Moreover, the tumor growth result in test [4] (p.o. from day 8) was “inhibition of tumor growth”.

As to `O=C1CN(C(=O)c2c(F)cccc2F)[C@@H](c2cccc(Br)c2)N1O` [Compound 3k], the half-inhibitory concentration (IC50) came to 2.17 µM in test [1] (human IDO1 biochemical assay) and 4.59 µM in test [3].

In the case of `N[C@@H](Cc1c[nH]c2ccccc12)C(=O)O` [Trp, L-tryptophan], the “K M,Trp of IDO1” value in test [5] was 6 µM. Besides, the “K M,Trp of TDO” value in test [6] is given as 190 µM.
